Measured values as given in ChEMBL document CHEMBL1201862, “PubChem BioAssay data set” (2004).
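Dose response: 5 concentrations. Exposure: 48 h. Format: 96-well plates. Endpoint: linear interpolation; highest concentration if not reached. Abbreviation: GI50, concentration required for 50% inhibition of growth.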 Activity calls are given as the source filed them. Cut-off read from the data, not from the text of the source: active = GI50 up to about 1.1 µM and inactive = higher.

How the values were obtained:
Assay in all cases: growth of human tumour cells (NCI), 48 h
[1] = tested on: K562
[2] = tested on: HL-60
[3] = tested on: HCC 2998
[4] = tested on: MOLT-4
[5] = tested on: SNB-75
[6] = tested on: OVCAR-5
[7] = tested on: SF-295
[8] = tested on: OVCAR-8
[9] = tested on: RPMI-8226
[10] = tested on: NCI-H522
[11] = tested on: MDA-MB-435
[12] = tested on: UACC-257
[13] = tested on: SW-620
[14] = tested on: ACHN
[15] = tested on: Hs-578T
[16] = tested on: RXF 393
[17] = tested on: SNB-19
[18] = tested on: EKVX
[19] = tested on: MDA-MB-231
[20] = tested on: T47D
[21] = tested on: CAKI-1
[22] = tested on: HCT-15
[23] = tested on: LOX IMVI
[24] = tested on: SF-539
[25] = tested on: MCF7
[26] = tested on: PC-3
[27] = tested on: SK-MEL-2
[28] = tested on: BT-549
[29] = tested on: SK-MEL-5
[30] = tested on: NCI-H460
[31] = tested on: DU-145
[32] = tested on: NCI-H23
[33] = tested on: HCT-116
[34] = tested on: A498
[35] = tested on: CCRF-CEM
[36] = tested on: SF-268
[37] = tested on: A549
[38] = tested on: NCI/ADR-RES
[39] = tested on: 786-0
[40] = tested on: MDA-N
[41] = tested on: COLO 205
[42] = tested on: U-251
[43] = tested on: IGROV-1
[44] = tested on: HOP-62
[45] = tested on: TK-10
[46] = tested on: SR
[47] = tested on: Malme-3M
[48] = tested on: NCI-H226
[49] = tested on: SK-OV-3
[50] = tested on: HOP-92
[51] = tested on: OVCAR-3
[52] = tested on: HT-29
[53] = tested on: OVCAR-4
[54] = tested on: SN12C
[55] = tested on: M14
[56] = tested on: SK-MEL-28
[57] = tested on: UACC-62
[58] = tested on: KM12
[59] = tested on: UO-31

Q: What does the source list for `CC1=C/C(=N\NC(N)=S)C(C(O)(C(F)(F)F)C(F)(F)F)C(C)(C)C1` (configuration not stated)?
A: GI50 [1]: > 10000 nM (inactive); GI50 [2]: > 10000 nM (inactive); GI50 [3]: > 10000 nM (inactive); GI50 [4]: > 10000 nM (inactive); GI50 [5]: > 10000 nM (inactive); GI50 [6]: > 10000 nM (inactive); GI50 [7]: > 10000 nM (inactive); GI50 [8]: > 10000 nM (inactive); GI50 [9]: > 10000 nM (inactive); GI50 [10]: > 10000 nM (inactive); GI50 [11]: > 10000 nM (inactive); GI50 [12]: > 10000 nM (inactive); GI50 [13]: > 10000 nM (inactive); GI50 [14]: > 10000 nM (inactive); GI50 [15]: > 10000 nM (inactive); GI50 [16]: > 10000 nM (inactive); GI50 [17]: > 10000 nM (inactive); GI50 [18]: > 10000 nM (inactive); GI50 [19]: > 10000 nM (inactive); GI50 [20]: > 10000 nM (inactive); GI50 [21]: > 10000 nM (inactive); GI50 [22]: > 10000 nM; GI50 [23]: > 10000 nM (inactive); GI50 [24]: > 10000 nM (inactive); GI50 [25]: > 10000 nM (inactive); GI50 [26]: > 10000 nM (inactive); GI50 [27]: > 10000 nM (inactive); GI50 [28]: > 10000 nM (inactive); GI50 [29]: > 10000 nM (inactive); GI50 [30]: > 10000 nM (inactive); GI50 [31]: > 10000 nM (inactive); GI50 [32]: > 10000 nM (inactive); GI50 [33]: > 10000 nM (inactive); GI50 [34]: > 10000 nM (inactive); GI50 [35]: > 10000 nM (inactive); GI50 [36]: > 10000 nM (inactive); GI50 [37]: > 10000 nM (inactive); GI50 [38]: > 10000 nM (inactive); GI50 [39]: > 10000 nM (inactive); GI50 [40]: > 10000 nM (inactive); GI50 [41]: > 10000 nM (inactive); GI50 [42]: > 10000 nM (inactive); GI50 [43]: > 10000 nM (inactive); GI50 [44]: > 10000 nM (inactive); GI50 [45]: > 10000 nM (inactive); GI50 [46]: > 10000 nM (inactive); GI50 [47]: > 10000 nM (inactive); GI50 [48]: > 10000 nM (inactive); GI50 [49]: > 10000 nM (inactive); GI50 [50]: > 10000 nM (inactive); GI50 [51]: > 10000 nM (inactive); GI50 [52]: > 10000 nM (inactive); GI50 [53]: > 10000 nM (inactive); GI50 [54]: > 10000 nM (inactive); GI50 [55]: > 10000 nM (inactive); GI50 [56]: > 10000 nM (inactive); GI50 [57]: > 10000 nM (inactive); GI50 [58]: > 10000 nM (inactive)

Q: With `CC(C)C[C@H](NC(=O)[C@H](Cc1ccccc1)NC(=O)CCc1ccccc1)B(O)O` as the molecule, how does the GI50 [1] read?
A: < 10 nM (active)

Q: And the GI50 [2]?
A: < 10 nM (active)

Q: And the GI50 [3]?
A: < 10 nM (active)

Q: And the GI50 [4]?
A: < 10 nM (active)

Q: And the GI50 [5]?
A: < 10 nM (active)

Q: What about the GI50 [6] of the same molecule?
A: < 10 nM (active)

Q: And the GI50 [7]?
A: < 10 nM (active)

Q: And the GI50 [8]?
A: < 10 nM (active)

Q: And the GI50 [9]?
A: < 10 nM (active)

Q: What about the GI50 [10] of the same molecule?
A: < 10 nM (active)

Q: What about the GI50 [11] of the same molecule?
A: < 10 nM (active)

Q: And the GI50 [12]?
A: < 10 nM (active)

Q: What about the GI50 [13] of the same molecule?
A: < 10 nM (active)

Q: What about the GI50 [14] of the same molecule?
A: < 10 nM (active)

Q: And the GI50 [15]?
A: < 10 nM (active)

Q: What about the GI50 [16] of the same molecule?
A: < 10 nM (active)

Q: And the GI50 [17]?
A: < 10 nM (active)

Q: And the GI50 [18]?
A: < 10 nM (active)

Q: What about the GI50 [19] of the same molecule?
A: < 10 nM (active)

Q: And the GI50 [20]?
A: < 10 nM (active)

Q: What about the GI50 [21] of the same molecule?
A: < 10 nM (active)

Q: And the GI50 [22]?
A: < 10 nM

Q: And the GI50 [23]?
A: < 10 nM (active)

Q: What about the GI50 [24] of the same molecule?
A: < 10 nM (active)

Q: And the GI50 [25]?
A: < 10 nM (active)

Q: What about the GI50 [26] of the same molecule?
A: < 10 nM (active)

Q: What about the GI50 [27] of the same molecule?
A: < 10 nM (active)

Q: And the GI50 [28]?
A: < 10 nM (active)

Q: What about the GI50 [29] of the same molecule?
A: < 10 nM (active)

Q: What about the GI50 [30] of the same molecule?
A: < 10 nM (active)

Q: And the GI50 [31]?
A: < 10 nM (active)

Q: And the GI50 [32]?
A: < 10 nM (active)

Q: What about the GI50 [33] of the same molecule?
A: < 10 nM (active)

Q: And the GI50 [34]?
A: < 10 nM (active)

Q: And the GI50 [59]?
A: < 10 nM (active)

Q: And the GI50 [35]?
A: < 10 nM (active)

Q: And the GI50 [36]?
A: < 10 nM (active)

Q: And the GI50 [37]?
A: < 10 nM (active)

Q: And the GI50 [38]?
A: 11 nM (active)

Q: And the GI50 [39]?
A: < 10 nM (active)

Q: And the GI50 [40]?
A: < 10 nM (active)

Q: What about the GI50 [41] of the same molecule?
A: < 10 nM (active)

Q: What about the GI50 [42] of the same molecule?
A: < 10 nM (active)

Q: What about the GI50 [43] of the same molecule?
A: < 10 nM (active)

Q: What about the GI50 [44] of the same molecule?
A: < 10 nM (active)

Q: And the GI50 [45]?
A: < 10 nM (active)

Q: And the GI50 [46]?
A: < 10 nM (active)

Q: What about the GI50 [47] of the same molecule?
A: < 10 nM (active)

Q: And the GI50 [48]?
A: < 10 nM (active)

Q: What about the GI50 [49] of the same molecule?
A: < 10 nM (active)

Q: What about the GI50 [50] of the same molecule?
A: < 10 nM (active)

Q: What about the GI50 [51] of the same molecule?
A: < 10 nM (active)

Q: What about the GI50 [52] of the same molecule?
A: < 10 nM (active)

Q: What about the GI50 [53] of the same molecule?
A: < 10 nM (active)

Q: And the GI50 [54]?
A: < 10 nM (active)

Q: And the GI50 [55]?
A: < 10 nM (active)

Q: And the GI50 [56]?
A: < 10 nM (active)

Q: What about the GI50 [57] of the same molecule?
A: < 10 nM (active)

Q: And the GI50 [58]?
A: < 10 nM (active)
